{"source": "patent US10168342B2", "about": "“Lipid probes and uses thereof” (THE SCRIPPS RESEARCH INSTITUTE, priority 2015, dated 2019)", "key": {"[1]": {"target": "T1, AEA-DA lipid probe targets in Neuro2a cells (Mus musculus, UniProt O08749)", "T1 sequence (O08749 36-509)": "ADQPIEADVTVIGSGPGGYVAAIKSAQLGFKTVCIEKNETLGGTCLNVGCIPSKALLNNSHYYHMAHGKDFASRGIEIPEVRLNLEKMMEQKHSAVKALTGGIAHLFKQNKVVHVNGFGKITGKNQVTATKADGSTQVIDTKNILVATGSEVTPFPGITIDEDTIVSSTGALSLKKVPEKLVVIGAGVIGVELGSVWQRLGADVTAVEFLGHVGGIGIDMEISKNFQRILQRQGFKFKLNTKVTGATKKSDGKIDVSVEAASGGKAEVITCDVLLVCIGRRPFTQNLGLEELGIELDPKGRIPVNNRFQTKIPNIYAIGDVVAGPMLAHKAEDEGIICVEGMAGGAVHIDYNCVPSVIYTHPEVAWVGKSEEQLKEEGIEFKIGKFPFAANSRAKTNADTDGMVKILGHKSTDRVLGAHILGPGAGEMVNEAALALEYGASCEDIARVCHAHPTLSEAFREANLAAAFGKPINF"}, "[2]": {"target": "T2, AEA-DA lipid probe targets in Neuro2a cells (Mus musculus, UniProt P00375)", "T2 sequence (P00375 1-187)": "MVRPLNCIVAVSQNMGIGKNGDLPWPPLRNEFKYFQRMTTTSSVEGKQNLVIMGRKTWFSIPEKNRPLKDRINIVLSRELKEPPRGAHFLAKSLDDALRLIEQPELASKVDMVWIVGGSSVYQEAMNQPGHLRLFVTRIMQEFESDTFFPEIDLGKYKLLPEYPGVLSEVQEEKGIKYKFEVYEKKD"}, "[3]": {"target": "T3, AEA-DA lipid probe targets in Neuro2a cells (Mus musculus, UniProt P10404)", "T3 sequence (P10404 33-641)": "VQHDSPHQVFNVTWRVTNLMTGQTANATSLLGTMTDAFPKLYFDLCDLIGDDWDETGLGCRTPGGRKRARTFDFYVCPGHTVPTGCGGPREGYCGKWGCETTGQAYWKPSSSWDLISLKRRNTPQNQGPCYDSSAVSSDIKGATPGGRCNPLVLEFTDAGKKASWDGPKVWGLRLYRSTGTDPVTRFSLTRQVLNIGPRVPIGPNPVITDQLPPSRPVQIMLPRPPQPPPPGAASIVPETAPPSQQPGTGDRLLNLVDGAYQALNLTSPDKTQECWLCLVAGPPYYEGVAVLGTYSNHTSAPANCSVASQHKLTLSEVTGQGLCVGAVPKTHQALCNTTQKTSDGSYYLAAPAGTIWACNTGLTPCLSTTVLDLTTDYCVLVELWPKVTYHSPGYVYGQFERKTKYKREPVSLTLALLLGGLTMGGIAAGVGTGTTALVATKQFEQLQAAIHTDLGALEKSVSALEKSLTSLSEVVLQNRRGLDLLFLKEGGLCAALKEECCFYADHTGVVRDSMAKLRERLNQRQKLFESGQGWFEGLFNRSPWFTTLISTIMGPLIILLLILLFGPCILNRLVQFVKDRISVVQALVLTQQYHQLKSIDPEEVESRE"}, "[4]": {"target": "T4, AEA-DA lipid probe targets in Neuro2a cells (Mus musculus, UniProt P35564)", "T4 sequence (P35564 21-591)": "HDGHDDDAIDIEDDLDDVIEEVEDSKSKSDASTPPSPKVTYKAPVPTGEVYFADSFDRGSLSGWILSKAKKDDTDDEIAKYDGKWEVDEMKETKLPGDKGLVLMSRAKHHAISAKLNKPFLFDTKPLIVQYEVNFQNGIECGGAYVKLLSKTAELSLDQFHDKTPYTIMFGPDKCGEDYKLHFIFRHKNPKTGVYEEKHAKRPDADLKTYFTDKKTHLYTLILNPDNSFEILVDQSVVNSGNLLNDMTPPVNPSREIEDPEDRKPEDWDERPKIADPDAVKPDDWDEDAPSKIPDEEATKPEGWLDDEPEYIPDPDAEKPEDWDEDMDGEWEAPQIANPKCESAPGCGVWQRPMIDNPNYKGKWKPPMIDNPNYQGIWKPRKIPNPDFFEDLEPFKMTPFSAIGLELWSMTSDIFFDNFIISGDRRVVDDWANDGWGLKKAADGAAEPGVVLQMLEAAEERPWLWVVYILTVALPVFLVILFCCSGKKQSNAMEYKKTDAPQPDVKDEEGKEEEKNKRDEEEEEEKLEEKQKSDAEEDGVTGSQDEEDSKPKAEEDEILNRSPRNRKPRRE"}, "[5]": {"target": "AEA-DA lipid probe targets in Neuro2a cells (Mus musculus, UniProt Q791T5)", "sequence (Q791T5 whole entry)": "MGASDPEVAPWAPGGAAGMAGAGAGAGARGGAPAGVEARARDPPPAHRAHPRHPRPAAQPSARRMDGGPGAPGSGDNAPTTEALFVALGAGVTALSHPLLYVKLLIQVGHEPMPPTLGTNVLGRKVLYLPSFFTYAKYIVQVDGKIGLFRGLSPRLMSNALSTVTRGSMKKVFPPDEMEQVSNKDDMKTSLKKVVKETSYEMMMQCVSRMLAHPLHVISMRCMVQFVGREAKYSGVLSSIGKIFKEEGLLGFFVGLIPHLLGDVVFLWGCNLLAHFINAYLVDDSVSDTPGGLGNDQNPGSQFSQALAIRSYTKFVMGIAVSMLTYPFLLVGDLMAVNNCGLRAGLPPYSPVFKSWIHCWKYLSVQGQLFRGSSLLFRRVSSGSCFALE"}, "[6]": {"target": "T5, AEA-DA lipid probe targets in Neuro2a cells (Mus musculus, UniProt Q9CQQ7)", "T5 sequence (Q9CQQ7 43-256)": "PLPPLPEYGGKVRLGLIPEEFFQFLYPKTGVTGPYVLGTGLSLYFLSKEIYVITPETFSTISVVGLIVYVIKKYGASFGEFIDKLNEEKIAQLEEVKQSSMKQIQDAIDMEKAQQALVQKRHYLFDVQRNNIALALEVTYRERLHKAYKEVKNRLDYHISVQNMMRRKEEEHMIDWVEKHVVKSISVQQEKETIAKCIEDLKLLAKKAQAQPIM"}, "[7]": {"target": "T6, AEA-DA lipid probe targets in Neuro2a cells (Mus musculus, UniProt Q9Z0R9)", "T6 sequence (Q9Z0R9 1-444)": "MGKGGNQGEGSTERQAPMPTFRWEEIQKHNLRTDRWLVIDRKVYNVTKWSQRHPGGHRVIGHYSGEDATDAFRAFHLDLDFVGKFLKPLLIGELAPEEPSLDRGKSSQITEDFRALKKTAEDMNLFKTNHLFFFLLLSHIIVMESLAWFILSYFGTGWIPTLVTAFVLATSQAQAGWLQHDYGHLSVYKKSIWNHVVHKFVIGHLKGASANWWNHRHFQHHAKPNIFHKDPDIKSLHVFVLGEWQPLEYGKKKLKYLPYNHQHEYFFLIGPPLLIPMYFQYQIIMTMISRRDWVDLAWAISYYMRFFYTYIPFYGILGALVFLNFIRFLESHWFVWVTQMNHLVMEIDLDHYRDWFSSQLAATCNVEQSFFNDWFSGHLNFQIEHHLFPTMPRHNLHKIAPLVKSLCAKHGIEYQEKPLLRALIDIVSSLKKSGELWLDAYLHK", "details": "for SILAC ratio, FADS2 (Q9Z0R9): Neuro2a cells, AEA-DA probe"}}, "note": "Like-named read-outs stand apart in the source and are kept apart here.", "data": [{"smiles": "CCCCC/C=C\\C/C=C\\C/C=C\\C/C=C\\CCCC(=O)NCCO", "note": "[AEA, anandamide, reference compound]", "values": [{"measurement": "SILAC ratio Dld", "setting": "[1]; competitor 200 μM", "value": 1.1}, {"measurement": "SILAC ratio Dhfr", "setting": "[2]; competitor 200 μM", "value": 1.2}, {"measurement": "SILAC ratio MLV-related", "setting": "[3]; competitor 200 μM", "value": 1.4}, {"measurement": "SILAC ratio, Canx", "setting": "[4]; competitor 200 μM", "value": 1.6}, {"measurement": "SILAC ratio Mtch1", "setting": "[5]; competitor 200 μM", "value": 1.4}, {"measurement": "SILAC ratio Atp5f1", "setting": "[6]; competitor 200 μM", "value": 1.5}, {"measurement": "SILAC ratio, FADS2 (Q9Z0R9)", "setting": "[7]; competitor 200 μM", "value": 2.5}, {"measurement": "SILAC ratio, Fads2", "setting": "[7]; competitor 200 μM", "value": 2.5}]}, {"smiles": "C=CCN(C)CCCCCCOc1ccc(C(=O)c2ccc(Br)cc2)c(F)c1", "note": "[Ro 48-8071, reference compound]", "values": [{"measurement": "SILAC ratio Dld", "setting": "[1]; competitor 25 μM", "value": 0.8}, {"measurement": "SILAC ratio Dhfr", "setting": "[2]; competitor 25 μM", "value": 0.8}, {"measurement": "SILAC ratio MLV-related", "setting": "[3]; competitor 25 μM", "value": 1.0}, {"measurement": "SILAC ratio, Canx", "setting": "[4]; competitor 25 μM", "value": 1.2}, {"measurement": "SILAC ratio Mtch1", "setting": "[5]; competitor 25 μM", "value": 0.9}, {"measurement": "SILAC ratio Atp5f1", "setting": "[6]; competitor 25 μM", "value": 1.0}, {"measurement": "SILAC ratio, FADS2 (Q9Z0R9)", "setting": "[7]; competitor 25 μM", "value": 1.2}, {"measurement": "SILAC ratio, Fads2", "setting": "[7]; competitor 25 μM", "value": 1.2}]}, {"smiles": "CN1CCN(C(=O)c2c(-c3ccccc3)c3cc([N+](=O)[O-])ccc3n2C)CC1", "note": "[KML110, (1-Methyl-5-nitro-3-phenyl-1H-indol-2-yl)(4-methylpiperazin-1-yl)methanone]", "values": [{"measurement": "SILAC ratio Dld", "setting": "[1]; competitor 25 μM", "value": 1.3}, {"measurement": "SILAC ratio Dhfr", "setting": "[2]; competitor 25 μM", "value": 1.4}, {"measurement": "SILAC ratio MLV-related", "setting": "[3]; competitor 25 μM", "value": 1.2}, {"measurement": "SILAC ratio, Canx", "setting": "[4]; competitor 25 μM", "value": 1.6}, {"measurement": "SILAC ratio Mtch1", "setting": "[5]; competitor 25 μM", "value": 1.2}, {"measurement": "SILAC ratio Atp5f1", "setting": "[6]; competitor 25 μM", "value": 1.6}, {"measurement": "SILAC ratio, Fads2", "setting": "[7]; competitor 25 μM", "value": 1.4}]}, {"smiles": "O=C(/C=C/c1cccnc1)NCCCCC1CCN(C(=O)c2ccccc2)CC1", "note": "[FK-866, reference compound]", "values": [{"measurement": "SILAC ratio Dld", "setting": "[1]; competitor 25 μM", "value": 1.1}, {"measurement": "SILAC ratio Dhfr", "setting": "[2]; competitor 25 μM", "value": 1.2}, {"measurement": "SILAC ratio MLV-related", "setting": "[3]; competitor 25 μM", "value": 1.1}, {"measurement": "SILAC ratio, Canx", "setting": "[4]; competitor 25 μM", "value": 1.2}, {"measurement": "SILAC ratio Mtch1", "setting": "[5]; competitor 25 μM", "value": 1.0}, {"measurement": "SILAC ratio Atp5f1", "setting": "[6]; competitor 25 μM", "value": 1.1}, {"measurement": "SILAC ratio, FADS2 (Q9Z0R9)", "setting": "[7]; competitor 25 μM", "value": 1.2}, {"measurement": "SILAC ratio, Fads2", "setting": "[7]; competitor 25 μM", "value": 1.2}]}, {"smiles": "CN1CCN(C(=O)c2[nH]c3ccc([N+](=O)[O-])cc3c2-c2ccccc2)CC1", "note": "[MJN228, (4-Methylpiperazin-1-yl)(5-nitro-3-phenyl-1H-indol-2-yl)methanone]", "values": [{"measurement": "SILAC ratio Dld", "setting": "[1]; competitor 10 μM", "value": 1.2}, {"measurement": "SILAC ratio Dld", "setting": "[1]; competitor 25 μM", "value": 1.2}, {"measurement": "SILAC ratio Dld", "setting": "[1]; competitor 50 μM", "value": 1.2}, {"measurement": "SILAC ratio Dld", "setting": "[1]; competitor 100 μM", "value": 1.1}, {"measurement": "SILAC ratio Dhfr", "setting": "[2]; competitor 10 μM", "value": 2.0}, {"measurement": "SILAC ratio Dhfr", "setting": "[2]; competitor 25 μM", "value": 1.6}, {"measurement": "SILAC ratio Dhfr", "setting": "[2]; competitor 50 μM", "value": 0.4}, {"measurement": "SILAC ratio Dhfr", "setting": "[2]; competitor 100 μM", "value": 1.5}, {"measurement": "SILAC ratio MLV-related", "setting": "[3]; competitor 10 μM", "value": 1.8}, {"measurement": "SILAC ratio MLV-related", "setting": "[3]; competitor 25 μM", "value": 1.8}, {"measurement": "SILAC ratio MLV-related", "setting": "[3]; competitor 50 μM", "value": 1.7}, {"measurement": "SILAC ratio MLV-related", "setting": "[3]; competitor 100 μM", "value": 2.5}, {"measurement": "SILAC ratio, Canx", "setting": "[4]; competitor 10 μM", "value": 1.3}, {"measurement": "SILAC ratio, Canx", "setting": "[4]; competitor 25 μM", "value": 1.7}, {"measurement": "SILAC ratio, Canx", "setting": "[4]; competitor 50 μM", "value": 1.8}, {"measurement": "SILAC ratio, Canx", "setting": "[4]; competitor 100 μM", "value": 2.6}, {"measurement": "SILAC ratio Mtch1", "setting": "[5]; competitor 10 μM", "value": 1.1}, {"measurement": "SILAC ratio Mtch1", "setting": "[5]; competitor 25 μM", "value": 1.2}, {"measurement": "SILAC ratio Mtch1", "setting": "[5]; competitor 50 μM", "value": 1.0}, {"measurement": "SILAC ratio Mtch1", "setting": "[5]; competitor 100 μM", "value": 1.2}, {"measurement": "SILAC ratio Atp5f1", "setting": "[6]; competitor 10 μM", "value": 1.2}, {"measurement": "SILAC ratio Atp5f1", "setting": "[6]; competitor 25 μM", "value": 1.5}, {"measurement": "SILAC ratio Atp5f1", "setting": "[6]; competitor 50 μM", "value": 1.6}, {"measurement": "SILAC ratio Atp5f1", "setting": "[6]; competitor 100 μM", "value": 1.8}, {"measurement": "SILAC ratio, FADS2 (Q9Z0R9)", "setting": "[7]; competitor 25 μM", "value": 1.8}, {"measurement": "SILAC ratio, Fads2", "setting": "[7]; competitor 10 μM", "value": 1.3}, {"measurement": "SILAC ratio, Fads2", "setting": "[7]; competitor 25 μM", "value": 1.8}, {"measurement": "SILAC ratio, Fads2", "setting": "[7]; competitor 50 μM", "value": 1.9}, {"measurement": "SILAC ratio, Fads2", "setting": "[7]; competitor 100 μM", "value": 2.8}]}]}
